Measurements from PubChem BioAssay AID220 (DTP/NCI, 2004).
Several values for one entry are separate records, joined by “and”; a condition that tells them apart may be missing. Equal values may be shown once. Results filed as inconclusive are left out.

Tested on: CD8F1 mice, subcutaneous mammary adenocarcinoma, T/C%
Experiment: NCI In Vivo Anticancer Drug Screen. Data for tumor model Mammary Adenocarcinoma CD8F1 (subcutaneous) in CD8F1
Details: higher = larger tumour
In short: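 Compound-treated versus vehicle-treated mice with transplantable tumors; survival or tumor size compared as T/C.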

[1] = endpoint: median tumor weight (est.), dose: 12.5 mg/kg/injection, schedule: Q07DX005 (ip), vehicle: saline with Tween-80
[2] = endpoint: median tumor weight (est.), dose: 25.0 mg/kg/injection, schedule: Q07DX005 (ip), vehicle: saline with Tween-80
[3] = endpoint: median tumor weight (est.), dose: 50.0 mg/kg/injection, schedule: Q07DX005 (ip), vehicle: saline with Tween-80
[4] = endpoint: median tumor weight (est.), dose: 100.0 mg/kg/injection, schedule: Q07DX005 (ip), vehicle: saline with Tween-80
[5] = endpoint: median tumor weight (est.), dose: 200.0 mg/kg/injection, schedule: Q07DX005 (ip), vehicle: saline with Tween-80

Structure (SMILES): CCN1C=C/C(=C\C=C/c2cc[n+](CC)c3ccccc23)c2ccccc21
- T/C (endpoint: median tumor weight (est.), dose: 0.06 mg/kg/injection, schedule: Q07DX005 (ip), vehicle: saline): 123 % of control
- T/C (endpoint: median tumor weight (est.), dose: 0.06 mg/kg/injection, schedule: Q07DX005 (ip), vehicle: suspension in saline): 104 % of control
- T/C (endpoint: median tumor weight (est.), dose: 0.12 mg/kg/injection, schedule: Q07DX005 (ip), vehicle: saline): 88 % of control
- T/C (endpoint: median tumor weight (est.), dose: 0.12 mg/kg/injection, schedule: Q07DX005 (ip), vehicle: suspension in saline): 83 % of control
- T/C (endpoint: median tumor weight (est.), dose: 0.25 mg/kg/injection, schedule: Q07DX005 (ip), vehicle: saline): 150 % of control
- T/C (endpoint: median tumor weight (est.), dose: 0.25 mg/kg/injection, schedule: Q07DX005 (ip), vehicle: suspension in saline): 119 % of control
- T/C (endpoint: median tumor weight (est.), dose: 0.5 mg/kg/injection, schedule: Q07DX005 (ip), vehicle: saline): 109 % of control
- T/C (endpoint: median tumor weight (est.), dose: 1.0 mg/kg/injection, schedule: Q07DX005 (ip), vehicle: saline): 101 % of control
- T/C (endpoint: median tumor weight (est.), dose: 1.0 mg/kg/injection, schedule: Q07DX005 (ip), vehicle: suspension in saline): 75 % of control

Structure (SMILES): C[C@]12CCC(=O)C(O)=C1CC[C@@H]1[C@@H]2CC[C@]2(C)C(=O)CC[C@@H]12
- T/C (endpoint: median tumor weight (est.), dose: 100.0 mg/kg/injection, schedule: Q01DX001 (ip), vehicle: Klucel (hydroxypropylcellulose) (HPC)): 182 % of control
- T/C (endpoint: median tumor weight (est.), dose: 100.0 mg/kg/injection, schedule: Q07DX005 (ip), vehicle: Klucel (hydroxypropylcellulose) (HPC)): 32 % of control
- T/C (endpoint: median tumor weight (est.), dose: 200.0 mg/kg/injection, schedule: Q01DX001 (ip), vehicle: Klucel (hydroxypropylcellulose) (HPC)): 9 % of control
- T/C (endpoint: median tumor weight (est.), dose: 200.0 mg/kg/injection, schedule: Q07DX005 (ip), vehicle: Klucel (hydroxypropylcellulose) (HPC)): 62 % of control
- T/C (endpoint: median tumor weight (est.), dose: 400.0 mg/kg/injection, schedule: Q01DX001 (ip), vehicle: Klucel (hydroxypropylcellulose) (HPC)): 189 % of control
- T/C (endpoint: median tumor weight (est.), dose: 400.0 mg/kg/injection, schedule: Q07DX005 (ip), vehicle: Klucel (hydroxypropylcellulose) (HPC)): 32 % of control
- T/C (endpoint: median tumor weight (est.), dose: 800.0 mg/kg/injection, schedule: Q01DX001 (ip), vehicle: Klucel (hydroxypropylcellulose) (HPC)): 68 % of control
- T/C (endpoint: median tumor weight (est.), dose: 800.0 mg/kg/injection, schedule: Q07DX005 (ip), vehicle: Klucel (hydroxypropylcellulose) (HPC)): 54 % of control
- T/C (endpoint: median tumor weight change, dose: 125.0 mg/kg/injection, schedule: Q01DX001 (ip), vehicle: Klucel (hydroxypropylcellulose) (HPC)): 78 % of control
- T/C (endpoint: median tumor weight change, dose: 250.0 mg/kg/injection, schedule: Q01DX001 (ip), vehicle: Klucel (hydroxypropylcellulose) (HPC)): 91 % of control
- T/C (endpoint: median tumor weight change, dose: 500.0 mg/kg/injection, schedule: Q01DX001 (ip), vehicle: Klucel (hydroxypropylcellulose) (HPC)): 72 % of control
- T/C (endpoint: median tumor weight change, dose: 1000.0 mg/kg/injection, schedule: Q01DX001 (ip), vehicle: Klucel (hydroxypropylcellulose) (HPC)): 68 % of control
- T/C (endpoint: median tumor weight change, dose: 2000.0 mg/kg/injection, schedule: Q01DX001 (ip), vehicle: Klucel (hydroxypropylcellulose) (HPC)): 72 % of control

Structure (SMILES): N=C(N)SCc1cccc2c(=O)cc(-c3ccccc3)oc12
- T/C (endpoint: median tumor weight change, dose: 125.0 mg/kg/injection, schedule: Q01DX001 (ip), vehicle: suspension in saline): 151 % of control
- T/C (endpoint: median tumor weight change, dose: 250.0 mg/kg/injection, schedule: Q01DX001 (ip), vehicle: suspension in saline): 151 % of control
- T/C (endpoint: median tumor weight change, dose: 500.0 mg/kg/injection, schedule: Q01DX001 (ip), vehicle: suspension in saline): 106 % of control
- T/C (endpoint: median tumor weight change, dose: 1000.0 mg/kg/injection, schedule: Q01DX001 (ip), vehicle: suspension in saline): 123 % of control

Structure (SMILES): Cc1c2ccccc2c(C)c2c1cc(C(=O)O)c1ccccc12
- T/C (endpoint: median tumor weight change, dose: 50.0 mg/kg/injection, schedule: Q01DX001 (ip), vehicle: sodium bicarbonate): 83 % of control
- T/C (endpoint: median tumor weight change, dose: 100.0 mg/kg/injection, schedule: Q01DX001 (ip), vehicle: sodium bicarbonate): 82 % of control
- T/C (endpoint: median tumor weight change, dose: 200.0 mg/kg/injection, schedule: Q01DX001 (ip), vehicle: sodium bicarbonate): 155 % of control
- T/C (endpoint: median tumor weight change, dose: 400.0 mg/kg/injection, schedule: Q01DX001 (ip), vehicle: sodium bicarbonate): 153 % of control

Structure (SMILES): COc1ccc(C(N)=O)cc1N=NN(C)C
- T/C (endpoint: median tumor weight (est.), dose: 6.25 mg/kg/injection, schedule: Q07DX005 (ip), vehicle: Klucel (hydroxypropylcellulose) (HPC)): 175 % of control

Structure (SMILES): CCCCc1ccc2nc(NC(=O)OC)[nH]c2c1
- T/C (endpoint: mean tumor weight, dose: 12.5 mg/kg/injection, schedule: Q07DX006 (ip), vehicle: saline with Tween-80): 196 % of control
- T/C (endpoint: mean tumor weight, dose: 100.0 mg/kg/injection, schedule: Q07DX006 (ip), vehicle: saline with Tween-80): 120 % of control
- T/C (endpoint: mean tumor weight, dose: 200.0 mg/kg/injection, schedule: Q07DX006 (ip), vehicle: saline with Tween-80): 161 % of control
- T/C (endpoint: mean tumor weight, dose: 400.0 mg/kg/injection, schedule: Q07DX006 (ip), vehicle: saline with Tween-80): 67 % of control
- T/C [1]: 55 % of control
- T/C [2]: 61 % of control
- T/C [3]: 122 % of control
- T/C [4]: 84 % of control
- T/C [5]: 49 % of control

Structure (SMILES): COc1ccc2c(c1)C(O)(CN)CCCCC(OC)CCCC2 (centres undefined)
- T/C (endpoint: median tumor weight change, dose: 62.5 mg/kg/injection, schedule: Q01DX001 (ip), vehicle: Klucel (hydroxypropylcellulose) (HPC)): 121 % of control

Structure (SMILES): O=C(O)CCCCCCCC(=O)O
- T/C (endpoint: median tumor weight change, dose: 225.0 mg/kg/injection, schedule: Q01DX001 (ip), vehicle: distilled water + Tween-80): 122 % of control
- T/C (endpoint: median tumor weight change, dose: 450.0 mg/kg/injection, schedule: Q01DX001 (ip), vehicle: distilled water + Tween-80): 82 % of control

Structure (SMILES): COc1ccc([I+]c2cccc(Cl)c2)cc1Cl
- T/C (endpoint: median tumor weight (est.), dose: 3.12 mg/kg/injection, schedule: Q07DX005 (ip), vehicle: saline with Tween-80): 189 % of control
- T/C [1]: 34 % of control
- T/C [3]: 111 % of control

Structure (SMILES): OCC1OC(n2cnc3c2NC=NC[C@H]3O)CC1O (some centres undefined)
- T/C (endpoint: median tumor weight (est.), dose: 0.25 mg/kg/injection, schedule: Q07DX005 (ip), vehicle: water): 104 % of control
- T/C (endpoint: median tumor weight (est.), dose: 0.5 mg/kg/injection, schedule: Q07DX005 (ip), vehicle: water): 108 % of control
- T/C (endpoint: median tumor weight (est.), dose: 2.0 mg/kg/injection, schedule: Q07DX005 (ip), vehicle: water): 63 % of control
- T/C (endpoint: median tumor weight (est.), dose: 4.0 mg/kg/injection, schedule: Q07DX005 (ip), vehicle: water): 51 % of control
- T/C (endpoint: median tumor weight (est.), dose: 8.0 mg/kg/injection, schedule: Q07DX005 (ip), vehicle: water): 60 % of control

Structure (SMILES): COC(=O)C(Cl)(Cl)N=Nc1c(Cl)cc(Cl)c(C)c1Cl
- T/C [2]: 104 % of control
- T/C [4]: 71 % of control
- T/C [5]: 85 % of control and 110 % of control
- T/C (endpoint: median tumor weight change, dose: 400.0 mg/kg/injection, schedule: Q01DX001 (ip), vehicle: saline with Tween-80): 78 % of control

Structure (SMILES): Nc1cc(Cl)c2[nH]cnc2n1
- T/C (endpoint: median tumor weight change, dose: 62.5 mg/kg/injection, schedule: Q01DX001 (ip), vehicle: distilled water + Tween-80): 76 % of control
- T/C (endpoint: median tumor weight change, dose: 62.5 mg/kg/injection, schedule: Q01DX001 (ip), vehicle: water): 111 % of control
- T/C (endpoint: median tumor weight change, dose: 125.0 mg/kg/injection, schedule: Q01DX001 (ip), vehicle: distilled water + Tween-80): 88 % of control
- T/C (endpoint: median tumor weight change, dose: 125.0 mg/kg/injection, schedule: Q01DX001 (ip), vehicle: water): 100 % of control
- T/C (endpoint: median tumor weight change, dose: 250.0 mg/kg/injection, schedule: Q01DX001 (ip), vehicle: distilled water + Tween-80): 58 % of control
- T/C (endpoint: median tumor weight change, dose: 250.0 mg/kg/injection, schedule: Q01DX001 (ip), vehicle: water): 92 % of control
- T/C (endpoint: median tumor weight change, dose: 500.0 mg/kg/injection, schedule: Q01DX001 (ip), vehicle: distilled water + Tween-80): 82 % of control
- T/C (endpoint: median tumor weight change, dose: 500.0 mg/kg/injection, schedule: Q01DX001 (ip), vehicle: water): 73 % of control
- T/C (endpoint: median tumor weight change, dose: 1000.0 mg/kg/injection, schedule: Q01DX001 (ip), vehicle: distilled water + Tween-80): 42 % of control
- T/C (endpoint: median tumor weight change, dose: 1000.0 mg/kg/injection, schedule: Q01DX001 (ip), vehicle: water): 80 % of control

Structure (SMILES): O=C1C=CC(=O)O1 (tested in a mixture with another compound)
- T/C (endpoint: median tumor weight (est.), dose: 25.0 mg/kg/injection, schedule: Q07DX004 (ip), vehicle: saline): 76 % of control
- T/C (endpoint: median tumor weight (est.), dose: 50.0 mg/kg/injection, schedule: Q07DX004 (ip), vehicle: saline): 61 % of control
- T/C (endpoint: median tumor weight (est.), dose: 100.0 mg/kg/injection, schedule: Q07DX004 (ip), vehicle: saline): 40 % of control
- T/C (endpoint: median tumor weight (est.), dose: 200.0 mg/kg/injection, schedule: Q07DX004 (ip), vehicle: saline): 81 % of control
- T/C (endpoint: median tumor weight (est.), dose: 400.0 mg/kg/injection, schedule: Q07DX004 (ip), vehicle: saline): 94 % of control

Structure (SMILES): C=C(C)[C@H]1Cc2c(ccc3c2O[C@@H]2COc4cc(OC)c(OC)cc4[C@@H]2C3=O)O1
- T/C (endpoint: median tumor weight (est.), dose: 4.0 mg/kg/injection, schedule: Q07DX005 (ip), vehicle: saline): 95 % of control
- T/C (endpoint: median tumor weight (est.), dose: 8.0 mg/kg/injection, schedule: Q07DX005 (ip), vehicle: saline): 85 % of control
- T/C (endpoint: median tumor weight (est.), dose: 16.0 mg/kg/injection, schedule: Q07DX005 (ip), vehicle: saline): 102 % of control
- T/C (endpoint: median tumor weight (est.), dose: 32.0 mg/kg/injection, schedule: Q07DX005 (ip), vehicle: saline): 95 % of control
